Assay results taken from ChEMBL document CHEMBL1201862, “PubChem BioAssay data set” (2004).
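48-hour exposure; five concentrations; linearly interpolated endpoints. At the GI50, growth is halved.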 The source made the active and inactive calls. Rule as the data show it: active = GI50 up to about 1.1 µM and inactive = higher.

Assays:
Test in all cases: DTP human tumour cell line panel, 48 h
786-0 = system: 786-0
A498 = system: A498
A549 = system: A549
ACHN = system: ACHN
BT-549 = system: BT-549
CAKI-1 = system: CAKI-1
CCRF-CEM = system: CCRF-CEM
COLO 205 = system: COLO 205
DU-145 = system: DU-145
EKVX = system: EKVX
HCC 2998 = system: HCC 2998
HCT-116 = system: HCT-116
HCT-15 = system: HCT-15
HL-60 = system: HL-60
HOP-92 = system: HOP-92
HT-29 = system: HT-29
Hs-578T = system: Hs-578T
IGROV-1 = system: IGROV-1
K562 = system: K562
KM12 = system: KM12
LOX IMVI = system: LOX IMVI
M14 = system: M14
MCF7 = system: MCF7
MDA-MB-231 = system: MDA-MB-231
MDA-MB-435 = system: MDA-MB-435
MDA-N = system: MDA-N
MOLT-4 = system: MOLT-4
Malme-3M = system: Malme-3M
NCI-H226 = system: NCI-H226
NCI-H23 = system: NCI-H23
NCI-H460 = system: NCI-H460
NCI-H522 = system: NCI-H522
NCI/ADR-RES = system: NCI/ADR-RES
OVCAR-3 = system: OVCAR-3
OVCAR-4 = system: OVCAR-4
OVCAR-5 = system: OVCAR-5
OVCAR-8 = system: OVCAR-8
PC-3 = system: PC-3
RPMI-8226 = system: RPMI-8226
SF-268 = system: SF-268
SF-295 = system: SF-295
SF-539 = system: SF-539
SK-MEL-28 = system: SK-MEL-28
SK-MEL-2 = system: SK-MEL-2
SK-MEL-5 = system: SK-MEL-5
SK-OV-3 = system: SK-OV-3
SN12C = system: SN12C
SNB-19 = system: SNB-19
SNB-75 = system: SNB-75
SW-620 = system: SW-620
T47D = system: T47D
TK-10 = system: TK-10
U-251 = system: U-251
UACC-257 = system: UACC-257
UACC-62 = system: UACC-62
UO-31 = system: UO-31
HOP-62 = system: HOP-62
RXF 393 = system: RXF 393
SR = system: SR

CC(C)(O)C1OCC(C2CCC3(C)C4=CCC5C(C)(C)C(O)CCC5(C)C4CCC23C)CC1O (configuration not stated)
GI50 (786-0): 14.2 µM (inactive) | GI50 (A498): 16.7 µM (inactive) | GI50 (A549): 14.1 µM (inactive) | GI50 (ACHN): 15.3 µM (inactive) | GI50 (BT-549): 11.1 µM (inactive) | GI50 (CAKI-1): 16 µM (inactive) | GI50 (CCRF-CEM): 26.4 µM (inactive) | GI50 (COLO 205): 15 µM (inactive) | GI50 (DU-145): 17.3 µM (inactive) | GI50 (EKVX): 17.2 µM (inactive) | GI50 (HCC 2998): 16.6 µM (inactive) | GI50 (HCT-116): 14.5 µM (inactive) | GI50 (HCT-15): 14.8 µM | GI50 (HL-60): > 100 µM (inactive) | GI50 (HOP-92): 12.6 µM (inactive) | GI50 (HT-29): 13.1 µM (inactive) | GI50 (Hs-578T): 13.8 µM (inactive) | GI50 (IGROV-1): 17.3 µM (inactive) | GI50 (K562): 4.44 µM (inactive) | GI50 (KM12): 14 µM (inactive) | GI50 (LOX IMVI): 17.9 µM (inactive) | GI50 (M14): 27.7 µM (inactive) | GI50 (MCF7): 11.6 µM (inactive) | GI50 (MDA-MB-231): 15.3 µM (inactive) | GI50 (MDA-MB-435): 15.5 µM (inactive) | GI50 (MDA-N): 16.6 µM (inactive) | GI50 (MOLT-4): 10.8 µM (inactive) | GI50 (Malme-3M): 18.5 µM (inactive) | GI50 (NCI-H226): 13 µM (inactive) | GI50 (NCI-H23): 23.2 µM (inactive) | GI50 (NCI-H460): 13.4 µM (inactive) | GI50 (NCI-H522): 11.5 µM (inactive) | GI50 (NCI/ADR-RES): 12.6 µM (inactive) | GI50 (OVCAR-3): 17.1 µM (inactive) | GI50 (OVCAR-4): 11.8 µM (inactive) | GI50 (OVCAR-5): 19.5 µM (inactive) | GI50 (OVCAR-8): 14.4 µM (inactive) | GI50 (PC-3): 10.5 µM (inactive) | GI50 (RPMI-8226): 7.94 µM (inactive) | GI50 (SF-268): 16.1 µM (inactive) | GI50 (SF-295): 13.9 µM (inactive) | GI50 (SF-539): 13.6 µM (inactive) | GI50 (SK-MEL-28): 15.8 µM (inactive) | GI50 (SK-MEL-2): 22.8 µM (inactive) | GI50 (SK-MEL-5): 14.7 µM (inactive) | GI50 (SK-OV-3): 15.8 µM (inactive) | GI50 (SN12C): 14.4 µM (inactive) | GI50 (SNB-19): 16.4 µM (inactive) | GI50 (SNB-75): 16.9 µM (inactive) | GI50 (SW-620): 15.2 µM (inactive) | GI50 (T47D): 13.7 µM (inactive) | GI50 (TK-10): 13.2 µM (inactive) | GI50 (U-251): 14.4 µM (inactive) | GI50 (UACC-257): 18.4 µM (inactive) | GI50 (UACC-62): 14.9 µM (inactive) | GI50 (UO-31): 16 µM (inactive)

Cc1ccc(S(=O)(=O)N/N=C2\CC3CC4CCC2C4C3)cc1 (configuration not stated)
GI50 (786-0): > 100 µM (inactive) | GI50 (A498): > 100 µM (inactive) | GI50 (A549): > 100 µM (inactive) | GI50 (ACHN): > 100 µM (inactive) | GI50 (BT-549): > 100 µM (inactive) | GI50 (CAKI-1): > 100 µM (inactive) | GI50 (CCRF-CEM): > 100 µM (inactive) | GI50 (COLO 205): > 100 µM (inactive) | GI50 (DU-145): > 100 µM (inactive) | GI50 (EKVX): > 100 µM (inactive) | GI50 (HCC 2998): > 100 µM (inactive) | GI50 (HCT-116): > 100 µM (inactive) | GI50 (HCT-15): > 100 µM | GI50 (HL-60): > 100 µM (inactive) | GI50 (HOP-62): > 100 µM (inactive) | GI50 (HOP-92): > 100 µM (inactive) | GI50 (HT-29): > 100 µM (inactive) | GI50 (Hs-578T): > 100 µM (inactive) | GI50 (IGROV-1): > 100 µM (inactive) | GI50 (K562): > 100 µM (inactive) | GI50 (KM12): > 100 µM (inactive) | GI50 (LOX IMVI): > 100 µM (inactive) | GI50 (M14): > 100 µM (inactive) | GI50 (MCF7): > 100 µM (inactive) | GI50 (MDA-MB-231): > 100 µM (inactive) | GI50 (MDA-MB-435): > 100 µM (inactive) | GI50 (MDA-N): > 100 µM (inactive) | GI50 (MOLT-4): > 100 µM (inactive) | GI50 (Malme-3M): > 100 µM (inactive) | GI50 (NCI-H226): > 100 µM (inactive) | GI50 (NCI-H23): > 100 µM (inactive) | GI50 (NCI-H460): > 100 µM (inactive) | GI50 (NCI-H522): > 100 µM (inactive) | GI50 (OVCAR-3): > 100 µM (inactive) | GI50 (OVCAR-4): > 100 µM (inactive) | GI50 (OVCAR-5): > 100 µM (inactive) | GI50 (OVCAR-8): > 100 µM (inactive) | GI50 (PC-3): > 100 µM (inactive) | GI50 (RPMI-8226): > 100 µM (inactive) | GI50 (RXF 393): > 100 µM (inactive) | GI50 (SF-268): > 100 µM (inactive) | GI50 (SF-295): > 100 µM (inactive) | GI50 (SF-539): > 100 µM (inactive) | GI50 (SK-MEL-28): > 100 µM (inactive) | GI50 (SK-MEL-5): > 100 µM (inactive) | GI50 (SK-OV-3): > 100 µM (inactive) | GI50 (SN12C): > 100 µM (inactive) | GI50 (SNB-75): > 100 µM (inactive) | GI50 (SR): > 100 µM (inactive) | GI50 (SW-620): > 100 µM (inactive) | GI50 (T47D): > 100 µM (inactive) | GI50 (TK-10): > 100 µM (inactive) | GI50 (U-251): > 100 µM (inactive) | GI50 (UACC-257): > 100 µM (inactive) | GI50 (UACC-62): > 100 µM (inactive) | GI50 (UO-31): > 100 µM (inactive)

Cc1c(C2CCSc3ccccc3N2)sc2ccccc12 (configuration not stated)
GI50 (786-0): > 100 µM (inactive) | GI50 (A549): 99.8 µM (inactive) | GI50 (ACHN): > 100 µM (inactive) | GI50 (BT-549): > 100 µM (inactive) | GI50 (CAKI-1): 52.5 µM (inactive) | GI50 (COLO 205): > 100 µM (inactive) | GI50 (DU-145): > 100 µM (inactive) | GI50 (EKVX): 30.9 µM (inactive) | GI50 (HCC 2998): 80.4 µM (inactive) | GI50 (HCT-116): 62.1 µM (inactive) | GI50 (HCT-15): 74.5 µM | GI50 (HL-60): 55.5 µM (inactive) | GI50 (HOP-62): > 100 µM (inactive) | GI50 (HOP-92): > 100 µM (inactive) | GI50 (HT-29): 54.8 µM (inactive) | GI50 (Hs-578T): > 100 µM (inactive) | GI50 (IGROV-1): > 100 µM (inactive) | GI50 (K562): 51.5 µM (inactive) | GI50 (KM12): 65.6 µM (inactive) | GI50 (LOX IMVI): > 100 µM (inactive) | GI50 (M14): > 100 µM (inactive) | GI50 (MCF7): 62.2 µM (inactive) | GI50 (MDA-MB-231): > 100 µM (inactive) | GI50 (MDA-MB-435): 35.2 µM (inactive) | GI50 (MDA-N): 39.8 µM (inactive) | GI50 (MOLT-4): 77.3 µM (inactive) | GI50 (Malme-3M): 64.3 µM (inactive) | GI50 (NCI-H226): > 100 µM (inactive) | GI50 (NCI-H23): > 100 µM (inactive) | GI50 (NCI-H460): 90.2 µM (inactive) | GI50 (NCI-H522): 47 µM (inactive) | GI50 (NCI/ADR-RES): 46 µM (inactive) | GI50 (OVCAR-3): > 100 µM (inactive) | GI50 (OVCAR-4): 62.7 µM (inactive) | GI50 (OVCAR-8): > 100 µM (inactive) | GI50 (PC-3): > 100 µM (inactive) | GI50 (RPMI-8226): > 100 µM (inactive) | GI50 (RXF 393): 86.5 µM (inactive) | GI50 (SF-268): > 100 µM (inactive) | GI50 (SF-295): > 100 µM (inactive) | GI50 (SF-539): > 100 µM (inactive) | GI50 (SK-MEL-28): > 100 µM (inactive) | GI50 (SK-MEL-2): > 100 µM (inactive) | GI50 (SK-MEL-5): > 100 µM (inactive) | GI50 (SK-OV-3): > 100 µM (inactive) | GI50 (SN12C): > 100 µM (inactive) | GI50 (SNB-19): > 100 µM (inactive) | GI50 (SNB-75): 98.2 µM (inactive) | GI50 (SW-620): > 100 µM (inactive) | GI50 (T47D): 87.9 µM (inactive) | GI50 (TK-10): > 100 µM (inactive) | GI50 (U-251): > 100 µM (inactive) | GI50 (UACC-257): 99.8 µM (inactive) | GI50 (UACC-62): > 100 µM (inactive) | GI50 (UO-31): 52.5 µM (inactive)
